Results: paper PMC5954419 (Biochemistry, 2017)

Biological target: T1, MGST1 (unactivated) (Rattus norvegicus, UniProt P08011)
T1 sequence (P08011 2-155): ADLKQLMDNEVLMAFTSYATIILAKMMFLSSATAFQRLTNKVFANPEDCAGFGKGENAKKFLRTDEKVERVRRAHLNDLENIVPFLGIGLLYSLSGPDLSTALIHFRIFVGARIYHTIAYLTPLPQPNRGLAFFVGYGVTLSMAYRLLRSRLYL
Test: steady-state spectrophotometric product formation
Assay type: biochemical
Conditions: 5 mM GSH, 5 °C, pH 6.5, 0.1 M potassium phosphate, 0.1% Triton X-100; unactivated enzyme

SMILES: O=[N+]([O-])c1ccc(Cl)c([N+](=O)[O-])c1 [CDNB, 1-Chloro-2,4-dinitrobenzene]
- Km: 11 ± 2 µM
